In one data set the test system is M. tuberculosis H37Rv. As to the kind of experiment: MIC by microplate Alamar Blue assay (MABA). The data set is classed as cell-based, Mycobacterium tuberculosis. Particulars: 7H12 media.
For data set [1], the system named is human embryonic kidney cells (HEK 293). The data set can be described thus: Toxicity to mammalian cells, percent cell death (Nucleocounter). Particulars: positive control. How it is done: (§1) Toxicity of the two compounds to mammalian cells was assayed in cell culture using mouse enteroendocrine cells (STC-1), human embryonic kidney cells (HEK 293; ATCC CRL-1573), and human lung fibroblasts (LL47; ATCC CCL-135). […] The human embryonic kidney cells and human lung fibroblasts were grown as per the American Type Culture Collection's recommendation, while the mouse enteroendocrine cells were grown as described by Vincent et al. (2001, Proc. Natl. Acad. Sci., 99:2392-2397). Media and sera were purchased from HyClone Laboratories (Logan, Utah). All cells were grown in 10% fetal bovine serum (FBS).
(§2) The number in the parenthesis represents the concentration of each compound in μg/mL. The percent cell death was benchmarked to 100% lysis with the positive control. The number of total cells and dead cells were counted after 6, 24, and 48 h using a Nucleocounter Automated cell counting system (New Brunswick; Edison, N.J.). Briefly, cells (STC, 200,000 cells/well; HEK 293, 200,000 cells/well; and LL47, 100,000 cells/well) were incubated in the appropriate medium for 24 h prior to addition of fresh media containing the antimicrobial compounds. After addition of the antimicrobial compound, the cell cultures were incubated at 37° C. with 5% CO2 for 6, 24, and 48 h. Cells were harvested by trypsinization using 0.25% trypsin-EDTA for 2 min. The trypsin was neutralized by addition of 200 μL of serum containing fresh medium. The cells were then harvested and transferred to 1.5 mL tubes, centrifuged (3-5 min at <100×g), and resuspended in 200 μL of fresh medium. For the total cell count, 100 μL of the suspension was added to lysis buffer (Reagent A100 in the starting kit (Cat No. M1293-0020, New Brunswick Scientific) for 30 s, which was stabilized using 100 μL of Reagent B. A positive control of completely lysed cells was used along with a negative control using sterile PBS (pH 7.4). For dead cell counts, 100 μL of cell lysate was counted without the use of lysis buffer or stabilizing buffer. All cell counts were obtained using the Nucleocounter automated cell counting system. Data were reported as the percent of cell death. The toxicity testing was done in replicate using three wells per test.

Data set [2] concerns mouse enteroendocrine cells (STC-1). The data set is described as above. The conditions noted are these: positive control. How it is done:
as §1, §2

For data set [3], the system named is human lung fibroblasts (LL47). The data set is described as above. The conditions noted are these: positive control. The protocol: as §1, §2

As for `NNC(=O)c1ccncc1` [Isoniazid], the “expected MIC range (quality control)” value with M. tuberculosis H37Rv lay in the range of 0.025 to 0.1 mg/L.

With triton [reference compound], the lysis in data set [1], in data set [2] and in data set [3] was 100% throughout.

The record behind these values is US20080261891A1, “COMPOSITIONS AND METHODS FOR USING SYRINGOPEPTIN 25A AND RHAMNOLIPIDS” (Utah State University, priority 2007, published 2008).
